In US8791106B2, “Fused ring pyridine compound” (Astellas Pharma Inc., priority 2010, dated 2014):

What was measured:
[1] = target: T1, human CB2 (Homo sapiens, UniProt P34972); assay: Test on inhibition of human CB2-mediated cyclic AMP (cAMP) production; assay type: cell-based; details: 30 nM test substance; forskolin 0.5 μM; human CB2-expressing CHO cells; 30 minutes at room temperature; read-out: Inh(%): inhibition rate of cAMP increase
T1 construct: expressed in transfected cells; host or cells: CHO cells
Protocol: This test was performed using CHO cells caused to express human CB2 (“Molecular Pharmacology”, 1995, Vol. 48, pp 443-450).
A human CB2-expressing CHO cell (2.5×10^3/mL) suspension and an assay medium supplemented with a test substance and forskolin (final concentration of 0.5 μM) were mixed together in equal amounts, followed by incubation for 30 minutes at room temperature, and then a 0.6% Triton X-100 solution was added thereto, thereby obtaining a cell lysate. A cAMP concentration in the cell lysate was measured using a cAMP kit (manufactured by Cisbio International). The assay medium was obtained by supplementing α-MEM manufactured by Invitrogen with 0.02% CHAPS, 1 mM isobutylmethylxanthine, and 0.5 mg/mL bovine serum albumin. The cAMP concentration in a forskolin-free cell suspension was regarded as 0% of increase in cAMP, and the cAMP concentration in a forskolin-added cell suspension was regarded as a 100% increase in cAMP, thereby allowing calculation of the inhibition rate of intracellular cAMP increase in 30 nM test substance.
In the table, Ex represents the example number of a test compound described later, and Inh represents inhibition rate of cAMP increase.

[2] = tested on: adjuvant-induced arthritis rat; assay: Effect of inhibition of hind paw weight distribution in adjuvant-induced arthritis rat; assay type: in vivo; details: oral, female Lewis rats, day after adjuvant, Vehicle group 0%, Normal group 100%, read-out: Inhibition rate (%) of hind paw load difference
Protocol: For this test, female Lewis rats (7- to 8-weeks-old) were used. 50 μL of killed Mycobacterium tuberculosis H37 Ra (manufactured by DIFCO MICROBIOLOGY) suspended in liquid paraffin at a concentration of 10 mg/mL was subcutaneously administered to the right hind footpad. On the next day, the test substance was administered orally, and after some time, the load on the left and right hind paws was measured using an Incapacitance Tester (manufactured by Linton Instruments), thereby calculating a difference in the load between left and right. The load difference of a Vehicle-administered group was regarded as an inhibition rate of 0%, and the load difference of a Normal group was regarded as an inhibition rate of 100%, thereby allowing calculation of the inhibition rate of the test substance.
In the table, Ex represents an example number of a test compound described later, and values in the parenthesis indicates a dose.

T1 sequence (P34972 whole entry): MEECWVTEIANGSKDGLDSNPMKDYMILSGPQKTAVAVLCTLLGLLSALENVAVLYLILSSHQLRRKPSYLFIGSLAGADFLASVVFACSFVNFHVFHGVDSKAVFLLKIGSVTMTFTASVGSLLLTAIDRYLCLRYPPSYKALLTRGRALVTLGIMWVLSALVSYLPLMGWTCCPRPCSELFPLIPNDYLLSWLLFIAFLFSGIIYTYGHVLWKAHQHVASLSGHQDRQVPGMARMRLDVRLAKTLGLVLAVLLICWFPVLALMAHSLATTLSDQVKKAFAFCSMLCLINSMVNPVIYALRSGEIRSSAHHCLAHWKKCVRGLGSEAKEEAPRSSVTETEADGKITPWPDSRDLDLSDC

Compound | inhibition at 0.03 µM [1] | inhibition in vivo at 0.1 mg/kg [2] | inhibition in vivo at 0.3 mg/kg [2]
O=C(c1cnc(Nc2cccc(Cl)c2)c2c1C1CCC2CC1)N1CCS(=O)(=O)CC1 [Example 101] | 99% |  | 
O=C(c1cnc(Nc2cc(F)cc(Cl)c2)c2c1C1CCC2CC1)N1CCS(=O)(=O)CC1 [Example 179] | 100% |  | 
Cc1ccc(Nc2cnc(C(=O)N3CCS(=O)(=O)CC3)c3c2C2CCC3CC2)cc1Cl [Example 167] | 115% |  | 
O=C(c1cnc(Nc2cccc(Cl)c2)c2c1CCCC2)N1CCS(=O)(=O)CC1 [Example 30] | 82% | 17% | 
O=C(c1ncc(Nc2ccc(F)c(Cl)c2)c2c1C1CCC2C1)N1CCS(=O)(=O)CC1 (stereo not shown) [Example 59] | 93% |  | 
O=C(c1cnc(Nc2ccc(F)c(Cl)c2)c2c1C1CCC2C1)N1CCS(=O)(=O)CC1 (stereo not shown) [Example 119-2] | 91% |  | 49%
Cc1ccc(F)c(Nc2cnc(C(=O)N3CCS(=O)(=O)CC3)c3c2C2CCC3CC2)c1 [Example 165] | 111% |  | 
O=C(c1cnc(Oc2cccc(C(F)(F)F)c2)c2c1CCCC2)N1CCS(=O)(=O)CC1 [Example 52] | 96% |  | 
O=C(c1cnc(N[C@@H]2C[C@H]3CC[C@@H]2C3)c2c1CCCC2)N1CCOCC1 [Example 11] | 77% |  | 
O=C(c1cnc(Nc2cccc(Cl)c2)c2c1C1CCC2C1)N1CCS(=O)(=O)CC1 (stereo not shown) [Example 117-2] | 100% |  | 

Further lines, with some results ahead:

inhibition at 0.03 µM [1] | Compound | inhibition in vivo at 0.1 mg/kg [2] | inhibition in vivo at 0.3 mg/kg [2]
103% | O=C(c1cnc(Nc2cccc(C(F)(F)F)c2)c2c1C1CCC2CC1)N1CCS(=O)(=O)CC1 [Example 112] |  | 
77% | CC1(C)CCCC(Nc2ncc(C(=O)N3CCS(=O)(=O)CC3)c3c2CCCC3)C1 (stereo not shown) [Example 38] |  | 
82% | O=C(c1ncc(Nc2cccc(C(F)(F)F)c2)c2c1CCCC2)N1CCS(=O)(=O)CC1 [Example 36] | 49% | 
97% | O=C(c1cnc(Nc2ccc(F)c(F)c2)c2c1C1CCC2CC1)N1CCS(=O)(=O)CC1 [Example 138] |  | 54%
87% | O=C(c1cnc(Nc2cccc(OC(F)(F)F)c2)c2c1CCCC2)N1CCOCC1 [Example 16] | 29% | 
90% | O=C(c1cnc(Nc2ccc(F)c(C(F)(F)F)c2)c2c1C1CCC2C1)N1CCS(=O)(=O)CC1 (stereo not shown) [Example 133-2] |  | 39%
105% | O=C(c1cnc(Nc2cccc(OC(F)(F)F)c2)c2c1C1CCC2C1)N1CCS(=O)(=O)CC1 (stereo not shown) [Example 120-2] |  | 34%
100% | O=C(c1ncc(Nc2cccc(OC(F)(F)F)c2)c2c1C1CCC2CC1)N1CCS(=O)(=O)CC1 [Example 125] |  | 
95% | O=C(c1ncc(Nc2ccc(F)c(C(F)(F)F)c2)c2c1C1CCC2CC1)N1CCS(=O)(=O)CC1 [Example 129] |  | 
73% | O=C(c1ncc(Nc2cccc(Cl)c2)c2c1CCCC2)N1CCS(=O)(=O)CC1 [Example 10] | 30% | 
119% | Cc1cccc(Nc2cnc(C(=O)N3CCS(=O)(=O)CC3)c3c2C2CCC3CC2)c1F [Example 164] |  | 
97% | O=C(c1ncc(Nc2cccc(Cl)c2)c2c1C1CCC2C1)N1CCS(=O)(=O)CC1 (stereo not shown) [Example 94-1] |  | 
96% | O=C(c1ncc(Nc2cccc(Cl)c2)c2c1C1CCC2CC1)N1CCS(=O)(=O)CC1 [Example 98] |  | 
